{
  "source": "ChEMBL document CHEMBL2073832",
  "about": "“Induction of cMrp/cMoat gene expression by cisplatin, 2-acetylaminofluorene, or cycloheximide in rat hepatocytes” (Hepatology, 1997)",
  "biological_target": "ATP-binding cassette sub-family C member 2 (Rattus norvegicus, UniProt Q63120)",
  "sequence (Q63120 whole entry)": "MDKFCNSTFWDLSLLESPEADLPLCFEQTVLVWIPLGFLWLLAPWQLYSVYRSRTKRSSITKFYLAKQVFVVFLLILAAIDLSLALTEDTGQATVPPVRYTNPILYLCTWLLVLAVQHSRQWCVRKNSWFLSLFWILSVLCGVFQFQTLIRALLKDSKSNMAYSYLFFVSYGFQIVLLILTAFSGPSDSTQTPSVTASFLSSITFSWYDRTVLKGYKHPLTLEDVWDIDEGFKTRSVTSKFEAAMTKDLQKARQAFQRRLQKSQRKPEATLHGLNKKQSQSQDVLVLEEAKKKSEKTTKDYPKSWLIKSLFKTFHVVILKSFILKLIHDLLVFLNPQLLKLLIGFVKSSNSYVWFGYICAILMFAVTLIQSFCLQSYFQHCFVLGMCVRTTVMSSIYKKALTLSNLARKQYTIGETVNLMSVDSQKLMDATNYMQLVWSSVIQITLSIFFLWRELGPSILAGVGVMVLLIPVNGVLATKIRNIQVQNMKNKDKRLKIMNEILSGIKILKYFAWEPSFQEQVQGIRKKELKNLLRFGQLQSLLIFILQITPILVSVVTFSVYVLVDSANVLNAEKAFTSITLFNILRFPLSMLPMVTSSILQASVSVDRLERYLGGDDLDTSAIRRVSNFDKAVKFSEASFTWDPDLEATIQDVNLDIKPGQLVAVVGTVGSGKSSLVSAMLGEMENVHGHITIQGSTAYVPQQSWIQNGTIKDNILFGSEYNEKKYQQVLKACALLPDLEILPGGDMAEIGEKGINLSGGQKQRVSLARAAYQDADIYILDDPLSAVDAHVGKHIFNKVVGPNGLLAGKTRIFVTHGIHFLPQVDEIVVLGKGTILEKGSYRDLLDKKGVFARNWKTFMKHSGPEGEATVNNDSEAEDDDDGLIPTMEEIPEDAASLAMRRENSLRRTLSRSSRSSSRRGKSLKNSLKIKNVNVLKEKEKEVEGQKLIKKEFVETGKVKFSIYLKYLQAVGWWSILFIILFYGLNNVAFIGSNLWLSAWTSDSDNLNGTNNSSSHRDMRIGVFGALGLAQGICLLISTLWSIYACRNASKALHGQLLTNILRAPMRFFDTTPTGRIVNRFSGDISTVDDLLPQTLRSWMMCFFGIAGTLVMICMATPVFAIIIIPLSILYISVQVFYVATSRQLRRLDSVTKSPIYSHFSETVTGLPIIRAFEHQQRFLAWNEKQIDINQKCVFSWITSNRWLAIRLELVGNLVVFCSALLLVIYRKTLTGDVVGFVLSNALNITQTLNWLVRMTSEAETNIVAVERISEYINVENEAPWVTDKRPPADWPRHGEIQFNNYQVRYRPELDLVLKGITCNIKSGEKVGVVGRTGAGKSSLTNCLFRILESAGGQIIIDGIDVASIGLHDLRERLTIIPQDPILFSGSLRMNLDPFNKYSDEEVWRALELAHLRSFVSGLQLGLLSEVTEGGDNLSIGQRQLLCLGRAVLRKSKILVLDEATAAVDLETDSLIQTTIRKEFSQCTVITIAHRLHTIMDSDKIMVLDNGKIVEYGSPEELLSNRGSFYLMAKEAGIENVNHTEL",
  "test": "TP_TRANSPORTER: Northern blot from primary hepatocytes",
  "type": "functional, cell-based, Hepatocyte",
  "data": [
    {"smiles": "C[C@@H]1C[C@@H]([C@H](O)CC2CC(=O)NC(=O)C2)C(=O)[C@@H](C)C1", "note": "[CYCLOHEXIMIDE]", "values": [
      {"measurement": "Activity", "result": "inducer [+]"}
    ]}
  ]
}
